# Patent US20140093588A1 (Fred Hutchinson Cancer Research Center, priority 2006, published 2014)
# Columns and labels:
# Murine J774 macrophages = assay: Cell viability (MTT reduction) of macrophages treated with GSNO or ONOO— after sulfide pretreatment; format: cell-based; settings: H2S tested on cells to define the highest tested concentration that would reduce viability
# Procedure: Cells were cultured in 96-well plates until cells reached confluence essentially as described in C.
# Cell respiration, an indicator of cell viability, was assessed by the mitochondrial-dependent reduction of MTT to formazen (Gross and Levi, 1992). Cells in 96-well plates were incubated at 37° C. with MTT (0.2 mg/ml for 60 min). Culture medium was removed by aspiration, and the cells were solubilized in DMSO. The extent of reduction of MTT to formazan within cells was quantitated by OD550 measurement.
# H2S was tested on cells to define the highest tested concentration that would reduce viability. […] Following pretreatment, cells were treated with GSNO (1 mM, 3 mM, or 10 mM). Cell viability was measured at three hours.
# Following pretreatment, ONOO— was added at concentrations of 0.3 mM, 0.6 mM, or 1 mM. Cell viability was measured at three hours.
# Three hours after treatment, cell viability was measured.
# In a related experiment, Murine J774 macrophages were grown until confluency in 96 well plates. Cells were pretreated with H2S (30 mM, 60 mM, 100 mM, 1 mM) for 30 minutes or 24 hours, then cells were incubated with GSNO or ONOO— for 3 hours. GSNO was used in 1 mM and 3 mM concentrations, while ONOO— was used in 300 mM concentration. Following treatment, cells were incubated for 20 minutes with fresh media containing 0.05% MTT. […] Optical density was measured at 550 nm.
# [1] = at STP; cited from earlier work
# [2] = tested on: LPS-induced IL-1 and TNF production; assay: Bacterial lipopolysaccharide endotoxemia in mice, IL-1β and TNFα plasma levels by ELISA; format: in vivo, C57/BI6 mice; settings: Tin-protoporphyrin IX 6 mg/kg ip, 30 min before Alzet H2S treatment
# Procedure: Four groups of C57/BI6 mice were subjected to bacterial lipopolysaccharide (5 mg/kg ip). Three groups received H2S treatment (0.2 mg/kg/hr, 4 hrs), and a control group received saline using Alzet osmotic minipumps 30 minutes prior to the induction of endotoxemia (n=7−10/group) in both cases. The effect of the heme oxygenase inhibitor tin-protoporphyrin IX (6 mg/kg, ip, 30 min earlier to Alzet treatment) was also examined in two groups. After 4 hours, the animals were anesthetized using pentobarbital (60 mg/kg ip) and blood samples were taken. IL-1β and TNFα plasma levels were measured using a commercially available ELISA kit (R&D Systems).
# [3] = cited from earlier work
structure (smiles),measurement,setting,value
"S [H2S, hydrogen sulfide]",concentration that may confer a protective effect,Murine J774 macrophages,1 mM
"[N]=O [NO, nitric oxide]",soluble in water up to a concentration,[1],about 2 mM
"C=Cc1c2[n-]c(c1C)/C=c1\[n-]/c(c(C)c1C=C)=C\c1[n-]c(c(CCC(=O)O)c1C)C=c1[n-]/c(c(C)c1CCC(=O)O)=C\2.[Sn+4] [Tin-protoporphyrin IX, tin-protoporphyrin IX]",effect of H2S on IL-1 after pretreatment with the heme oxygenase inhibitor,[2],attenuated
O=NOO [peroxynitrite],half-life,[3],~1 s
